According to ChEMBL document CHEMBL6134890, “Terminally Symmetric β-Turn Peptides for Multidrug-Resistant Bacterial Infections” (J Med Chem, 2025):
Converted amounts (≈) assume the structure as drawn. The source made the active and inactive calls. The calls are words filed in the database; no cut-off is given here. Peptide text beside a SMILES is read from it.

Assays:
Cell membrane [1] = experiment: Disruption of cell membrane in multi-drug resistant Escherichia coli assessed as release of cell content at 2 times MIC measured for 120 mins by transmission electron microscopy analysis; type: subcellular
Staphylococcus aureus [2] = experiment: Antimicrobial activity against multi-drug resistant Staphylococcus aureus assessed as reduction in bacterial growth in presence of MgCl2; type: functional, organism-based
Cell membrane [3] = experiment: Disruption of cell membrane in multi-drug resistant Escherichia coli assessed as increase in red fluorescence intensity of PI at 2 times MIC measured for 2 hrs by fluorescence confocal microscopic imaging based analysis; type: subcellular
Escherichia coli [4] = experiment: Antibiofilm activity in […] assessed as eradication of formed biofilm by measuring reduction in viable bacterial count measured after 12 hrs by confocal microscopy based analysis; type: functional, organism-based
Enterococcus faecalis = experiment: Antimicrobial activity against multi-drug resistant Enterococcus faecalis assessed as reduction in bacterial growth by broth dilution method; type: functional
Escherichia coli [5] = experiment: Antibacterial activity against multidrug resistant Escherichia coli infected in male Kunming mouse model assessed as reduction in wound size measured after 3 to 5 days in presence of levofloxacin by caliper method; type: functional, organism-based; conditions: time 3-5 day
Escherichia coli [6] = experiment: Antibacterial activity against Escherichia coli ATCC 25922 infected in male Kunming mouse model assessed as reduction in bacterial load measured after 11 days in presence of levofloxacin; type: functional, organism-based; conditions: time 11.0 day
Escherichia coli [7] = experiment: Antibacterial activity against multidrug resistant Escherichia coli infected in male Kunming mouse model assessed as reduction in IL-6 expression in presence of levofloxacin by immunochemical analysis; type: functional, organism-based
Cell membrane [8] = experiment: Disruption of cell membrane in multi-drug resistant Escherichia coli assessed as appearance of cell shrinkage at 2 times MIC measured for 120 mins by transmission electron microscopy analysis; type: subcellular
Cell membrane [9] = experiment: Induction of cytoplasmic membrane depolarization in multi-drug resistant Escherichia coli at 1 to 4 times MIC measured within 1 min by DiSC3-5 fluorescent dye based analysis
Escherichia coli [10] = experiment: Antimicrobial activity against Escherichia coli ATCC 25922 assessed as reduction in bacterial growth by broth dilution method; type: functional
L02 = experiment: Cytotoxicity against human LO2 cells at 2 to 256 uM measured after 24 hrs by CCK-8 method; type: toxicity, cell-based; conditions: l02, 24 h, dose 2-256 µM
Cell membrane [11] = experiment: Disruption of cell membrane in multi-drug resistant Escherichia coli assessed as stomatal formation at 2 times MIC measured for 120 mins by transmission electron microscopy analysis; type: subcellular
Escherichia coli [12] = experiment: Antimicrobial activity against multi-drug resistant Escherichia coli assessed as reduction in bacterial growth in presence of NaCl; type: functional, organism-based
Cell membrane [13] = experiment: Disruption of cell membrane in multi-drug resistant Staphylococcus aureus assessed as appearance of ruptured cell membrane at 2 times MIC measured for 120 mins by transmission electron microscopy analysis; type: subcellular
Cell membrane [14] = experiment: Disruption of cell membrane in multi-drug resistant Escherichia coli assessed as appearance of ruptured cell membrane at 2 times MIC measured for 120 mins by transmission electron microscopy analysis; type: subcellular
Cell membrane [15] = experiment: Disruption of cell membrane in multi-drug resistant Staphylococcus aureus assessed as release of cell content at 2 times MIC measured for 120 mins by transmission electron microscopy analysis; type: subcellular
Escherichia coli [16] = experiment: Antimicrobial activity against multi-drug resistant Escherichia coli assessed as reduction in bacterial growth in presence of FeCl3; type: functional, organism-based
Escherichia coli [17] = experiment: Antibacterial activity against multidrug resistant Escherichia coli infected in male Kunming mouse model assessed as recovery of mouse weight measured after 11 days; type: functional, organism-based; conditions: time 11.0 day
Escherichia coli [18] = experiment: Antibacterial activity against Escherichia coli ATCC 25922 infected in male Kunming mouse model assessed as reduction in bacterial load measured after 11 days; type: functional, organism-based; conditions: time 11.0 day
Escherichia coli [19] = experiment: Antibacterial activity against multidrug resistant Escherichia coli infected in male Kunming mouse model assessed as reduction in tissue hemorrhage in presence of levofloxacin by H and E staining based analysis; type: functional, organism-based
Escherichia coli [20] = experiment: Antimicrobial activity against multi-drug resistant Escherichia coli assessed as reduction in bacterial growth in presence of MgCl2; type: functional, organism-based
Cell membrane [21] = experiment: Disruption of cell membrane in multi-drug resistant Staphylococcus aureus assessed as cell shrinkage at 2 times MIC measured for 120 mins by transmission electron microscopy analysis; type: subcellular
Staphylococcus aureus [22] = experiment: Antimicrobial activity against multi-drug resistant Staphylococcus aureus assessed as reduction in bacterial growth in presence of KCl; type: functional, organism-based
Escherichia coli [23] = experiment: Antibacterial activity against multidrug resistant Escherichia coli infected in male Kunming mouse model assessed as scabs thickening measured after 7 days by caliper method; type: functional, organism-based; conditions: time 7.0 day
Escherichia coli [24] = experiment: Bactericidal activity against multi-drug resistant Escherichia coli assessed as eradication of bacterial growth at 2 times MIC by time-kill kinetic assay; type: functional, organism-based; conditions: time 120-720 min
Cell membrane [25] = experiment: Disruption of cell membrane in multi-drug resistant Staphylococcus aureus assessed as stomatal formation at 2 times MIC measured for 120 mins by transmission electron microscopy analysis; type: subcellular
Staphylococcus aureus [26] = experiment: Antimicrobial activity against multi-drug resistant Staphylococcus aureus assessed as reduction in bacterial growth at 2 times MIC measured after 1 hrs in presence of trypsin by microplate reader based analysis; type: functional, organism-based
Staphylococcus aureus [27] = experiment: Antimicrobial activity against multi-drug resistant Staphylococcus aureus assessed as reduction in bacterial growth in presence of NaCl; type: functional, organism-based
Escherichia coli [28] = experiment: Antibacterial activity against multidrug resistant Escherichia coli infected in male Kunming mouse model assessed as reduction in bacterial load measured after 11 days in presence of levofloxacin; type: functional, organism-based; conditions: time 11.0 day
Escherichia coli [29] = experiment: Antimicrobial activity against multi-drug resistant Escherichia coli assessed as reduction in bacterial growth at 2 times MIC measured after 1 hrs in presence of chymotrypsin by microplate reader based analysis; type: functional, organism-based
Escherichia coli [30] = experiment: Antibiofilm activity against multi-drug resistant Escherichia coli at 0.5 times MIC measured after 24 hrs by crystal violet staining based analysis; type: functional, organism-based
[31] = tested on: Staphylococcus epidermidis; experiment: Antimicrobial activity against multi-drug resistant Staphylococcus epidermidis assessed as reduction in bacterial growth by broth dilution method; type: functional
Staphylococcus aureus [32] = experiment: Antimicrobial activity against multi-drug resistant Staphylococcus aureus assessed as reduction in bacterial growth measured after 6 hrs in 25% plasma; type: functional, organism-based
Escherichia coli [33] = experiment: Bactericidal activity against multi-drug resistant Escherichia coli assessed as eradication of bacterial growth at 2 times MIC measured after 3 hrs by time-kill kinetic assay relative to control; type: functional
Escherichia coli [34] = experiment: Antibacterial activity against multidrug resistant Escherichia coli infected in male Kunming mouse model assessed as wound healing measured after 11 days in presence of levofloxacin by caliper method relative to control; type: functional; conditions: time 11 day
Klebsiella pneumoniae = experiment: Antimicrobial activity against multi-drug resistant Klebsiella pneumoniae assessed as reduction in bacterial growth by broth dilution method; type: functional
Escherichia coli [35] = experiment: Antibacterial activity against multidrug resistant Escherichia coli infected in male Kunming mouse model assessed as recovery of mouse weight measured after 11 days in presence of levofloxacin; type: functional, organism-based; conditions: time 11.0 day
Cell membrane [36] = experiment: Induction of outer membrane permeabilization in multi-drug resistant Escherichia coli assessed as NPN uptake at 1 to 4 times MIC measured within 1 min by fluorescence based analysis; type: subcellular
Staphylococcus aureus [37] = experiment: Antibiofilm activity in methicillin-resistant Staphylococcus aureus assessed as eradication of formed biofilm by measuring reduction in viable bacterial count measured after 12 hrs by confocal microscopy based analysis; type: functional, organism-based
Staphylococcus aureus [38] = experiment: Antimicrobial activity against multi-drug resistant Staphylococcus aureus assessed as reduction in bacterial growth at 2 times MIC measured after 1 hrs in presence of chymotrypsin by microplate reader based analysis; type: functional, organism-based
Staphylococcus aureus [39] = experiment: Antibiofilm activity against multi-drug resistant Staphylococcus aureus measured after 24 hrs by crystal violet staining based analysis; type: functional, organism-based

CC[C@H](C)[C@H](NC(=O)[C@H](CCCCN)NC(=O)[C@@H](NC(=O)[C@H](CCCCN)NC(=O)[C@@H]1CCCN1C(=O)[C@H](Cc1c[nH]c2ccccc12)NC(=O)[C@H](Cc1c[nH]c2ccccc12)NC(=O)[C@H](Cc1c[nH]c2ccccc12)NC(=O)[C@@H]1CCCN1C(=O)[C@H](CCCCN)NC(=O)[C@@H](NC(=O)[C@H](CCCCN)NC(=O)[C@@H](NC(=O)[C@@H](N)CCCCN)[C@@H](C)CC)[C@@H](C)CC)[C@@H](C)CC)C(=O)N[C@@H](CCCCN)C(N)=O (H-KIKIKPWWWPKIKIK-NH2)
Activity (Cell membrane [1]): Active | Activity (Staphylococcus aureus [2]): Active | Activity (Cell membrane [3]): Active | Activity (Escherichia coli [4]): Dose-dependent-effect | MIC (Enterococcus faecalis): 4 µM (≈ 7.97 µg/mL) | Activity (Escherichia coli [5]): Active | Activity (Escherichia coli [6]): Active | Activity (Escherichia coli [7]): Active | Activity (Cell membrane [8]): Active | Activity (Cell membrane [9]): Active | MIC (Escherichia coli [10]): 4 µM (≈ 7.97 µg/mL) | Activity (L02): Toxic | Activity (Cell membrane [11]): Active | Activity (Escherichia coli [12]): Active | Activity (Cell membrane [13]): Active | Activity (Cell membrane [14]): Active | Activity (Cell membrane [15]): Active | Activity (Escherichia coli [16]): Active | Activity (Escherichia coli [17]): Active | Activity (Escherichia coli [18]): Active | Activity (Escherichia coli [19]): Active | Activity (Escherichia coli [20]): Active | Activity (Cell membrane [21]): Active | Activity (Staphylococcus aureus [22]): Active | Activity (Escherichia coli [23]): Active | Activity (Escherichia coli [24]): Time-dependent-effect | Activity (Cell membrane [25]): Active | Activity (Staphylococcus aureus [26]): inactive | Activity (Staphylococcus aureus [27]): Active | Activity (Escherichia coli [28]): Active | Activity (Escherichia coli [29]): inactive | Activity (Escherichia coli [30]): Active | MIC [31]: 4 µM (≈ 7.97 µg/mL) | Activity (Staphylococcus aureus [32]): Active | Activity (Escherichia coli [33]): 100% | Activity (Escherichia coli [34]): 100% | MIC (Klebsiella pneumoniae): 4 µM (≈ 7.97 µg/mL) | Activity (Escherichia coli [35]): Active | Activity (Cell membrane [36]): Active | Activity (Staphylococcus aureus [37]): Dose-dependent-effect | Activity (Staphylococcus aureus [38]): inactive | Activity (Staphylococcus aureus [39]): Dose-dependent-effect
